# From patent US7018836B1, “P-TEFb compositions, methods and screening assays” (priority 1996, dated 2006)
# How the values were obtained:
# [1] = tested on: productive elongation (runoff transcripts) by RNA polymerase II in KcN; type: biochemical, Drosophila; conditions: for IC50: read-out: 50% inhibition point of runoff transcription
# Drosophila P-TEFb = type: biochemical; conditions: for inhibition of P-TEFb CTD kinase at higher ATP: 100 μM ATP
# Protocol: 0.4 μl of purified RNA polymerase II and various protein samples were mixed in 18 μl of 55 mM HMK. The reaction was then initiated by the addition of 2 μl of a solution containing 2 μCi of [γ-^32P]ATP (ICN) and unlabeled ATP at 10 μM, or only unlabeled ATP at concentrations from 1 to 100 μM or other NTPs or dNTPs at concentrations of 1 to 100 μM. Reactions were incubated for the indicated times at 23° C. and then terminated with SDS loading buffer. Samples were analyzed on a 6–15% SDS polyacrylamide gel which was silver stained, dried and subjected to autoradiography if the assay contained label.
# [2] = tested on: DRB-sensitive runoff transcription in HeLa nuclear extract (P-TEFb-like activity); assay: Pulse-chase transcription in HeLa nuclear extract; type: biochemical, human
# Protocol: A pulse-chase protocol was used in which the template DNA was preincubated with the extract, 20 mM HEPES, pH 7.6 and 10 mM MgCl2 for 20 min at 30° C. Nucleotides, including [α-^32P]CTP were added to start the pulse; 2 min later, excess cold CTP was added to initiate the chase. Reactions were stopped after the indicated chase times. During the pulse, 10 μl reaction mixtures contained the following: 20 mM HEPES (pH 7.6), 10 mM MgCl2, 600 μM each GTP, UTP and ATP, 5 μCi of [α-^32P]CTP (˜1 μM CTP), 66 mM KCl, 10–40 μg/ml DNA template, and 3 μl of HeLa nuclear extract. For the chase, unlabeled CTP was added to bring the total concentration of CTP to 1.2 mM and the final reaction volume to 12 μl. Reaction mixtures containing 250 mM KCl, were supplemented with KCl at the beginning of the chase. Drosophila P-TEFb was added to the preincubation mixture where indicated. Reactions were stopped by adding 200 μl of stop solution (1% Sarkosyl, 50 mM Tris, pH 8.0, 50 mM EDTA, 100 mM NaCl and 100 μg/ml tRNA). The reaction mixtures were phenol extracted and the nucleic acids were ethanol precipitated, washed with 70% ethanol, dried and analyzed by gel electrophoresis.
# For polyacrylamide gel electrophoresis, samples were resuspended in […] of 0.25×TBE (1×TBE contains 89 mM Tris base, 89 mM Boric acid and 2 mM EDTA) and 8 M urea, heated for 3 min at 85° C. and analyzed in 6% acrylamide-8 M urea-1×TBE gels. Denaturing agarose gel electrophoresis was performed by resuspending samples in 50% formamide-2.2 M formaldehyde-1× morpholinepropanesulfonic acid (MOPS) buffer (20 mM MOPS, pH 7.0; 5 mM sodium acetate, 1 mM EDTA) and heating the mixture at 60° C. for 5 min. Samples were resolved in a 2% agarose gel containing 2.2 M formaldehyde and IX MOPS buffer.
# human P-TEFb = target: T1, human P-TEFb (Homo sapiens, UniProt P50750); assay: CTD kinase assay with immunoprecipitated human P-TEFb and Drosophila RNA polymerase II as substrate (FIG. 7B); type: biochemical; conditions: for IC50: immunoprecipitated human P-TEFb, 10 μM ATP, read-out: 50% inhibition point, CTD kinase assay
# T1 construct: endogenous in cells; host or cells: HeLa nuclear extract (HNE), immunoprecipitate on anti-PITALRE-CT beads
# Protocol: For every 50 μl of HNE, 10 μl of protein A beads containing 1 μg of bound IgG was used. After depletion of HNE, the antibody-containing beads were extensively washed with 100 times the bead volume of 20 mM HEPES (pH 7.6), 0.5% NP-40, 1% Triton X-100, and 5 mM DTT, 600 mM or indicated concentration of NaCl, and then washed with 25 times the bead volume of 20 mM HEPES (pH 7.6) and 1 mM DTT. The amounts of the washed beads used for the kinase assays and silver staining were the equivalent of 1 μl and 10 μl of HNE, respectively.
# CTD kinase assays were performed in a […] reaction containing 20 mM HEPES (pH7.6), 10 μM ATP, 5 μCi [γ-^32P]ATP, 10 ng Drosophila RNA polymerase II, 5 mM MgCl2, and purified Drosophila P-TEFb or immunoprecipitated human P-TEFb. In the reactions containing DRB it was added to 50 μM unless other indicated amounts were used. The reactions were incubated at 30° C. for 1 hour.
# TAK = target: T2, TAK (Homo sapiens, UniProt P50750); assay: TAK activity assay (GST-Tat pull-down, CTD3 peptide); type: biochemical; conditions: in a manner similar to P-TEFb
# T2 construct: Nuclear extract, cytoplasmic extract, or fractions containing partially purified TAK were incubated with glutathione-Sepharose beads containing GST-Tat fusion proteins; endogenous in cells; host or cells: HeLa cell extract or partially purified HeLa cytoplasmic fraction; GST-Tat made in E. coli DE3 (BL21)
# Protocol: Preparation of Tat fusion proteins and the TAK pull-down assay were conducted as described by Herrmann and Rice (Herrmann and Rice, 1993; 1995) with modifications as described. Nuclear extract, cytoplasmic extract, or fractions containing partially purified TAK were incubated with glutathione-Sepharose beads containing GST-Tat fusion proteins for 1 hour at 4° C. with gentle rocking. DE3 (BL21) bacteria containing the GST-Tat expression vectors were obtained from NIH AIDS Research and Reference Reagent Program. For maximum sensitivity, GST-Tat48Δ was used unless otherwise specified. The beads (30 μl, 50% slurry) were washed 6 to 8 times with 1 ml EBCD buffer (50 mM Tris, pH 8.0, 120 mM NaCl, 0.5% Nonidet P-40, and 5 mM DTT) containing 0.03% SDS, then 2 to 4 times with Tat kinase buffer (TKB/Mg: 50 mM Tris-HCl, pH 7.6, 5 mM DTT, 5 mM MnCl2, and 4 mM MgCl2), and brought to 50 μl with TKB/Mg buffer and kinase assay mix. The final reaction contained 2 μM ATP, 10 μCi y-^32P-ATP (ICN, 3000 Ci/mmole), and 50–100 μM of CTD trimer peptide CTD3 ([…], SEQ ID NO:68). Reactions were incubated at 25° C. for 40 minutes, stopped by boiling in Laemmli sample buffer, and resolved by electrophoresis in 15% polyacrylamide: bis-acrylamide (30%:0.15%) gels.
# HeLa cells = conditions: added to HeLa cells; cited from earlier work
# T1 sequence (P50750 whole entry): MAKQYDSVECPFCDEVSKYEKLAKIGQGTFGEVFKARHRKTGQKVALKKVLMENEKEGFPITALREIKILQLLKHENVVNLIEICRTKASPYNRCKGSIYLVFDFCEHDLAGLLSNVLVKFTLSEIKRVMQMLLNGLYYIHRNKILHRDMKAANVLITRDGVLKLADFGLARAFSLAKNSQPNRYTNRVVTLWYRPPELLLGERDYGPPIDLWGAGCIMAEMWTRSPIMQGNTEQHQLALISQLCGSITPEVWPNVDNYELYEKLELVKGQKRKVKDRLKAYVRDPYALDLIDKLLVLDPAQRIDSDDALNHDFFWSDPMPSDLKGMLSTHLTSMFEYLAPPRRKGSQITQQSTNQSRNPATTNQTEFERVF
# T1 sequence (O60563 whole entry partner): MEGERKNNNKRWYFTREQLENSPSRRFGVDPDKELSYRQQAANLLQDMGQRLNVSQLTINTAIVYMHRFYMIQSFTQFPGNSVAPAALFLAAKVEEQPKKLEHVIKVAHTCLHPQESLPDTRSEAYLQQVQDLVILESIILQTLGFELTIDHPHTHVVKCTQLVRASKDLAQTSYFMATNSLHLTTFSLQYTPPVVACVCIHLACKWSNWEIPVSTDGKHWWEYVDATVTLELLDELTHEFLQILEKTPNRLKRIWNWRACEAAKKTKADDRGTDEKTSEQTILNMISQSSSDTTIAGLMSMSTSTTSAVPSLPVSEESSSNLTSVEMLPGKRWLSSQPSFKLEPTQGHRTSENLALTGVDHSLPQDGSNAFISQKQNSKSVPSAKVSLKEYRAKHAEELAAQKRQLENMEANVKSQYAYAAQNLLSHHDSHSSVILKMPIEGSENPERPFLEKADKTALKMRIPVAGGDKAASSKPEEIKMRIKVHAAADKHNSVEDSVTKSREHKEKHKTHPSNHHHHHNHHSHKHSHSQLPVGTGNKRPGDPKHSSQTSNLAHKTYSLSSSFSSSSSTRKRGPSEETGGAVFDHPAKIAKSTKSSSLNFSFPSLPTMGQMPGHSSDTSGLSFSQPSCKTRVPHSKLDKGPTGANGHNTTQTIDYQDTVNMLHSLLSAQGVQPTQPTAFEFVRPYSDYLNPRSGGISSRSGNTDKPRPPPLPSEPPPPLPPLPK
# T2 sequence (P50750 whole entry, the tested form may be a part): as the sequence (P50750 whole entry) above
# T2 sequence (O60563 whole entry, further chain, the tested form may be a part): as the sequence (O60563 whole entry partner) above
# T2 sequence (P04608 1-48, further chain): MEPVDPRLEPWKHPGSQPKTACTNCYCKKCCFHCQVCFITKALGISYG
Compound,fraction of runoff generated that was DRB-sensitive [1],IC50 [1] [µM],"inhibition of P-TEFb CTD kinase (Drosophila P-TEFb; 10 μM ATP, DRB at 10 μM)",sensitivity of CTD kinase activity of P-TEFb (Drosophila P-TEFb; 20 μM DRB),inhibition of P-TEFb CTD kinase at higher ATP (Drosophila P-TEFb),DRB concentration at which maximum inhibition occurred [2] [µM],formation of DRB-insensitive processive elongation complexes [2],fraction of runoff generated that was DRB-sensitive [2] [%],sensitivity of phosphorylation by beads containing PITALRE (human P-TEFb; 50 μM DRB),IC50 (human P-TEFb) [µM],TAK activity (TAK),amount of RNA polymerase IIo (HeLa cells),effect on initiation and abortive transcription ([1]; even at concentrations that severely inhibited runoff),amount of H-8 required relative to DRB to inhibit the kinase to the same level (Drosophila P-TEFb; 10 μM ATP),"IC50 ([2]; HeLa NE, 2 min pulse/45 sec chase, read-out: 50% inhibition point of appearance of runoff) [µM]","ratio of 50% inhibition points (H-8/DRB), CTD kinase assay (human P-TEFb)"
"OC[C@H]1O[C@@H](n2cnc3cc(Cl)c(Cl)cc32)[C@H](O)[C@@H]1O [DRB, 5,6-dichloro-1-β-D-ribofuranosylbenzimidazole]",greater than 95%,0.7,strongly inhibited,sensitive,less effective,30,did not inhibit,60,sensitive,0.65,inhibited,rapid decrease,,,,
CNCCNS(=O)(=O)c1cccc2cnccc12 [H-8],,7,,,less effective,,,,,16,inhibited,rapid decrease,unaffected,approximately 10 times,20,25
